Drawing on doi:10.1101/2020.08.26.267799v1 (biorxiv, 2020), this text covers Kd for one compound.

The target of this assay is Human insulin (HI) (Homo sapiens, UniProt P01308). Put plainly: ITC, insulin titrated into CBBG, one-site model. The class given is binding.
Human insulin (HI), sequence (P01308 25-54): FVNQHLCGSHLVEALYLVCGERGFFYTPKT
Human insulin (HI), sequence (P01308 90-110): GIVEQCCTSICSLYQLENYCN

The Kd is a measure of binding affinity in units of concentration. Consider `CCOc1ccc(Nc2ccc(/C(=C3C=C/C(=[N+](/CC)Cc4cccc(S(=O)(=O)[O-])c4)C=C/3C)c3ccc(N(CC)Cc4cccc(S(=O)(=O)O)c4)cc3C)cc2)cc1` [Coomassie Brilliant Blue G-250], for which the dissociation constant (Kd) is 12.5 µM.
